Measured values published in PMC10261145, “Ceramide sensing by human SPT-ORMDL complex for establishing sphingolipid homeostasis” (Nature Communications, 2023).

B1: ORMDL3 (full-length, wild type) (natural protein, human, UniProt Q8N138 1-153, looked up)
chain: MNVGTAHSEVNPNTRVMNSRGIWLSYVLAIGLLHIVLLSIPFVSVPVVWTLTNLIHNMGMYIFLHTVKGTPFETPDQGKARLLTHWEQMDYGVQFTASRKFLTITPIVLYFLTSFYTKYDQIHFVLNTVSLMSVLIPKLPQLHGVRIFGINKY
notes: ORMDL3, human, codon-optimized full-length cDNA in pCAG (new ORMDL3-FL plasmid without the 14 extra nucleotides upstream of the ORF); cDNAs were cloned 'with an N-terminal Flag tag or without a tag'; also called ORMDL3-FL; WT ORMDL3; source: HEK293F, transiently co-transfected with the SPT subunits, purified as a complex (anti-Flag resin, SEC, GDN)

Tests used:
SPT-ORMDL3 complex [1] = target: T1, SPT-ORMDL3 complex (Homo sapiens, UniProt O15269+O15270+Q8N138, Q8N138:N13A); assay: DTNB CoA-release assay; assay type: biochemical; settings: 10 mM L-serine, 100 μM palmitoyl-CoA, 25 μM PLP, pH 7.5, 37 °C
T1 construct: full-length subunits (ORMDL3-FL) co-expressed in HEK293F; N-terminal Flag tag on a subunit; purified in GDN; dimer of heterotetrameric protomers; with Serine palmitoyltransferase small subunit A

SPT-ORMDL2 complex = target: T2, SPT-ORMDL2 complex (Homo sapiens, UniProt O15269+O15270+Q53FV1); assay: DTNB CoA-release assay; assay type: biochemical
T2 construct: full-length subunits co-expressed in HEK293F; N-terminal Flag tag on a subunit; purified in GDN; with Serine palmitoyltransferase small subunit A

SPT-ORMDL3 complex [2] = target: T3, SPT-ORMDL3 complex (Homo sapiens, UniProt O15269+O15270+Q8N138, O15269:DEL40-41); assay: DTNB CoA-release assay; assay type: biochemical; settings: 10 mM L-serine, 100 μM palmitoyl-CoA, 25 μM PLP, pH 7.5, 37 °C
T3 construct: full-length subunits (ORMDL3-FL) co-expressed in HEK293F; N-terminal Flag tag on a subunit; purified in GDN; dimer of heterotetrameric protomers; with Serine palmitoyltransferase small subunit A

SPT-ORMDL3 complex [3] = target: T4, SPT-ORMDL3 complex (Homo sapiens, UniProt O15269+O15270+Q8N138, O15270:Y122A); assay: DTNB CoA-release assay; assay type: biochemical
T4 construct: full-length subunits (ORMDL3-FL) co-expressed in HEK293F; N-terminal Flag tag on a subunit; purified in GDN; dimer of heterotetrameric protomers; with Serine palmitoyltransferase small subunit A
From the text: (§1) DTNB CoA-release assay on SPT-ORMDL3 complex | severely impaired for the former two variants, but largely sustained for the latter two variants

SPT-ORMDL3 complex [4] = target: T5, SPT-ORMDL3 complex (Homo sapiens, UniProt O15269+O15270+Q8N138, Q8N138:H85A); assay: DTNB CoA-release assay; assay type: biochemical
T5 construct: full-length subunits (ORMDL3-FL) co-expressed in HEK293F; N-terminal Flag tag on a subunit; purified in GDN; dimer of heterotetrameric protomers; with Serine palmitoyltransferase small subunit A
From the text: as §1

SPT-ORMDL1 complex = target: T6, SPT-ORMDL1 complex (Homo sapiens, UniProt O15269+O15270+Q9P0S3); assay: DTNB CoA-release assay; assay type: biochemical
T6 construct: full-length subunits co-expressed in HEK293F; N-terminal Flag tag on a subunit; purified in GDN; with Serine palmitoyltransferase small subunit A

SPT-ORMDL3 complex [5] = target: T7, SPT-ORMDL3 complex (Homo sapiens, UniProt O15269+O15270+Q8N138); assay: DTNB CoA-release assay; cryo-EM structure; assay type: biochemical
T7 construct: full-length subunits (ORMDL3-FL) co-expressed in HEK293F; N-terminal Flag tag on a subunit; purified in GDN; dimer of heterotetrameric protomers; with Serine palmitoyltransferase small subunit A

SPT-ORMDL3 complex [6] = target: T8, SPT-ORMDL3 complex (Homo sapiens, UniProt O15269+O15270+Q8N138, Q8N138:F63P); assay: DTNB CoA-release assay; assay type: biochemical; settings: 10 mM L-serine, 100 μM palmitoyl-CoA, 25 μM PLP, pH 7.5, 37 °C
T8 construct: full-length subunits (ORMDL3-FL) co-expressed in HEK293F; N-terminal Flag tag on a subunit; purified in GDN; dimer of heterotetrameric protomers; with Serine palmitoyltransferase small subunit A

SPT-ORMDL3 complex [7] = target: T9, SPT-ORMDL3 complex (Homo sapiens, UniProt O15269+O15270+Q8N138, O15269:DEL39-39); assay: DTNB CoA-release assay; assay type: biochemical; settings: 10 mM L-serine, 100 μM palmitoyl-CoA, 25 μM PLP, pH 7.5, 37 °C
T9 construct: full-length subunits (ORMDL3-FL) co-expressed in HEK293F; N-terminal Flag tag on a subunit; purified in GDN; dimer of heterotetrameric protomers; with Serine palmitoyltransferase small subunit A

SPT-ORMDL3 complex [8] = target: T7, SPT-ORMDL3 complex; assay: cryo-EM structure; LC-MS/MS of co-purified ceramides; assay type: binding; settings: endogenous co-purified lipid; C24-ceramide fitted to a ceramide-like density, chain length not uniquely defined
SPTLC1 = target: T10, SPTLC1 (human, UniProt O15269 1-473); assay: cryo-EM structure; single-particle cryo-EM of co-expressed and co-purified SPT-ORMDL3 complexes at ~18 mg/ml in 25 mM HEPES pH 7.5, 150 mM NaCl, 0.01% GDN; apo, or WT preincubated with 1 mM C6-ceramide on ice for 1 hr; settings: both partners purified
T10 construct: serine palmitoyltransferase subunit SPTLC1, human, codon-optimized full-length cDNA; source: HEK293F, transiently co-transfected with the other subunits, purified as a complex (anti-Flag resin, SEC, GDN)
T10 sequence (looked up): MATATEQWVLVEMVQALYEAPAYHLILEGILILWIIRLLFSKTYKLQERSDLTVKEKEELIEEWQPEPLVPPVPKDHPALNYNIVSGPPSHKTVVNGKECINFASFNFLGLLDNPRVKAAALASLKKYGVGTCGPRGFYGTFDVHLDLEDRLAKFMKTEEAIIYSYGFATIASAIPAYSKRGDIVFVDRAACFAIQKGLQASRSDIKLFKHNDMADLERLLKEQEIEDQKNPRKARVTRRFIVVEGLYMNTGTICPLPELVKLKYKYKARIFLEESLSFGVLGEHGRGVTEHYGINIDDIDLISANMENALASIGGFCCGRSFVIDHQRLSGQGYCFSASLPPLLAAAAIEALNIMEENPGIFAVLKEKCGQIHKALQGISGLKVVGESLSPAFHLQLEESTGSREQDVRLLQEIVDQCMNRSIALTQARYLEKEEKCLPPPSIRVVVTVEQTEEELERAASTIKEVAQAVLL

SPTLC2 = target: T11, SPTLC2 (human, UniProt O15270 1-562); assay: as above; settings: both partners purified
T11 construct: serine palmitoyltransferase subunit SPTLC2, human, codon-optimized full-length cDNA; source: HEK293F, transiently co-transfected with the other subunits, purified as a complex (anti-Flag resin, SEC, GDN)
T11 sequence (looked up): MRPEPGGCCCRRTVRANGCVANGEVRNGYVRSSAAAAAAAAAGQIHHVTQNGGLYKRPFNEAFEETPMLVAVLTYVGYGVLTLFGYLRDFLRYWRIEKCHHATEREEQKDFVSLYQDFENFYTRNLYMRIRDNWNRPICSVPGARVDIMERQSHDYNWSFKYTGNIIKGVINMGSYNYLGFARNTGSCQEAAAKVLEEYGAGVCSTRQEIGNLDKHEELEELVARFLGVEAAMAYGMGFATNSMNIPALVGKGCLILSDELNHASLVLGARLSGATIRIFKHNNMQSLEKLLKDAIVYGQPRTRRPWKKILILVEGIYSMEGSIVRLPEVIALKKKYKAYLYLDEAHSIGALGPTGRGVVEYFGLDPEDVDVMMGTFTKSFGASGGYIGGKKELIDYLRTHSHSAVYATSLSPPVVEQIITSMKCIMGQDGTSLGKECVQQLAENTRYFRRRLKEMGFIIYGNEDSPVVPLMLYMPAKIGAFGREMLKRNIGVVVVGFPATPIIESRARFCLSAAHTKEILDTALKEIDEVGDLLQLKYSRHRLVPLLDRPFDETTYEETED

[9] = target: T12, serine palmitoyltransferase (SPT) complex (SPTLC1, SPTLC2, SPTssa) (human, UniProt O15269 1-473; O15270 1-562; Q969W0 1-71); assay: as above; settings: both partners purified
T12 construct: SPTLC1, human, codon-optimized full-length cDNA; SPTLC2, human, codon-optimized full-length cDNA; SPTssa, human, codon-optimized full-length cDNA; Also purified alone, without ORMDLs; also called WT SPT complex; source: HEK293F, transiently co-transfected, purified (anti-Flag resin, SEC, GDN); copies: + +
T12 sequence (looked up) 1: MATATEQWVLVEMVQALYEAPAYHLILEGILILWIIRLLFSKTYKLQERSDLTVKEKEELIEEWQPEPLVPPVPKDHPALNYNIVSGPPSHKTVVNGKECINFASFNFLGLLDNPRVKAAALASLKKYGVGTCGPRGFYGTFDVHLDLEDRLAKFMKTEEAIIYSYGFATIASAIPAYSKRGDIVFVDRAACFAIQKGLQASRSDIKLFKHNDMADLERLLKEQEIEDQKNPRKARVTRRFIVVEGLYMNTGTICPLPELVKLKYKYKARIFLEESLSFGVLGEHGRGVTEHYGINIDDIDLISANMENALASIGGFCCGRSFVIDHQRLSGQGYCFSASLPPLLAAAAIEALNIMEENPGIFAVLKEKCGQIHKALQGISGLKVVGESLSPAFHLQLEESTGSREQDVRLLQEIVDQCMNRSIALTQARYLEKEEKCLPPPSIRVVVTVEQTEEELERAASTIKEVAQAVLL
T12 sequence (looked up) 2: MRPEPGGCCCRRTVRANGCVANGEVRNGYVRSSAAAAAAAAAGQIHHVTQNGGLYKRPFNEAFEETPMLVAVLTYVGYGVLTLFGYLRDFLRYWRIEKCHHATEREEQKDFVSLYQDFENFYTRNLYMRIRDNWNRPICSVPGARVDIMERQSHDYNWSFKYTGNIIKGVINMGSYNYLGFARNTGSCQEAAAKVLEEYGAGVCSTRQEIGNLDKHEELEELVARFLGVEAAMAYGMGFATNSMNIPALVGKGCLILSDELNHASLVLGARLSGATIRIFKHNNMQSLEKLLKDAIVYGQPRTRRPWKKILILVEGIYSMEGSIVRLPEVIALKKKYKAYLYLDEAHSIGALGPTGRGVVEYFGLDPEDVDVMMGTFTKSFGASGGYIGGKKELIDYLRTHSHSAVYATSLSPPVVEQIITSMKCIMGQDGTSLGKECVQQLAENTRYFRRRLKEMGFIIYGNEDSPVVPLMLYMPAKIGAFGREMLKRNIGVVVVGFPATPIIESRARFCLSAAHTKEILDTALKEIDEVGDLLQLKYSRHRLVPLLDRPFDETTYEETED
T12 sequence (looked up) 3: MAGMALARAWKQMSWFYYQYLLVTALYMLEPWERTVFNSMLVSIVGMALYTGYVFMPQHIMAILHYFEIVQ

[10] = target: B1; assay: as above; settings: both partners purified

T5 sequence (Q8N138 whole entry H85A, one chain of several): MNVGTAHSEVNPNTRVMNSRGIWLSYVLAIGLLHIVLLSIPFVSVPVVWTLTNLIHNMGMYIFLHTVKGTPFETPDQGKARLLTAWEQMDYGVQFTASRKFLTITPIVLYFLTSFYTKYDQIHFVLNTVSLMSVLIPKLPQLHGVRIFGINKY
T8 sequence (Q8N138 whole entry F63P, one chain of several): as the sequence (Q8N138 whole entry H85A, one chain of several) above, with F63P, A85H counted along it
T6 sequence (Q9P0S3 whole entry, one chain of several): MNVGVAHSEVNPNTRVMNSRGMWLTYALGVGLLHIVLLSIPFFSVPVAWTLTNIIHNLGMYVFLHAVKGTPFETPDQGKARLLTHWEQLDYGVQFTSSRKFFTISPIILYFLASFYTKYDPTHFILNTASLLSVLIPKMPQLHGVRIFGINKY
T1 sequence (Q8N138 whole entry N13A, one chain of several): as the sequence (Q8N138 whole entry H85A, one chain of several) above, with N13A, A85H counted along it
T4 sequence (O15270 whole entry Y122A, one chain of several): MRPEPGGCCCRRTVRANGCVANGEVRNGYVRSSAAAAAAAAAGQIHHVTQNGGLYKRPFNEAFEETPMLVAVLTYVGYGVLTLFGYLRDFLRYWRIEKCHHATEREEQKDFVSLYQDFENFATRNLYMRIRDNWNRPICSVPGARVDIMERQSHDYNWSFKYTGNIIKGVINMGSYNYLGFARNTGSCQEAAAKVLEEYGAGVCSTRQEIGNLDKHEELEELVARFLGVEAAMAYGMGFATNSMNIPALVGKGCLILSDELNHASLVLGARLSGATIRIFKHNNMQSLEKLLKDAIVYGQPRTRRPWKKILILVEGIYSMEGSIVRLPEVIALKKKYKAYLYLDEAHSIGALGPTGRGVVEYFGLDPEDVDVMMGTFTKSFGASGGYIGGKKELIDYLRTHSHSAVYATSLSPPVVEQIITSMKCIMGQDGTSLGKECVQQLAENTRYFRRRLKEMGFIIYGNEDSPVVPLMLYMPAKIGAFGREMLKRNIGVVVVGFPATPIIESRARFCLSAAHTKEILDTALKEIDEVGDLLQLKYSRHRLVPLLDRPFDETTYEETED
T9 sequence (O15269 with tags, fused parts or gaps DEL39-39, one chain of several): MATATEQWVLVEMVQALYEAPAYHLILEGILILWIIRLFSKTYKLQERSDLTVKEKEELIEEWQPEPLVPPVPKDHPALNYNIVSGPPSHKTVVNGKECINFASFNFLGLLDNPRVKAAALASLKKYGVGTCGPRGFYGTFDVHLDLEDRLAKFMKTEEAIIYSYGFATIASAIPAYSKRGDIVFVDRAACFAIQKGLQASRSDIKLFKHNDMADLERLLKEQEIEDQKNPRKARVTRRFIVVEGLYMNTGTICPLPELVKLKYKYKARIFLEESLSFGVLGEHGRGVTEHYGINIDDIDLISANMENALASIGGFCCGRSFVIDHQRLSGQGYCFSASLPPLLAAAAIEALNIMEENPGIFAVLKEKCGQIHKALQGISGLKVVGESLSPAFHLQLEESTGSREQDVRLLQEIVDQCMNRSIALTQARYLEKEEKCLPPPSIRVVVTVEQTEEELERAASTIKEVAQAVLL
T3 sequence (O15269 with tags, fused parts or gaps DEL40-41, one chain of several): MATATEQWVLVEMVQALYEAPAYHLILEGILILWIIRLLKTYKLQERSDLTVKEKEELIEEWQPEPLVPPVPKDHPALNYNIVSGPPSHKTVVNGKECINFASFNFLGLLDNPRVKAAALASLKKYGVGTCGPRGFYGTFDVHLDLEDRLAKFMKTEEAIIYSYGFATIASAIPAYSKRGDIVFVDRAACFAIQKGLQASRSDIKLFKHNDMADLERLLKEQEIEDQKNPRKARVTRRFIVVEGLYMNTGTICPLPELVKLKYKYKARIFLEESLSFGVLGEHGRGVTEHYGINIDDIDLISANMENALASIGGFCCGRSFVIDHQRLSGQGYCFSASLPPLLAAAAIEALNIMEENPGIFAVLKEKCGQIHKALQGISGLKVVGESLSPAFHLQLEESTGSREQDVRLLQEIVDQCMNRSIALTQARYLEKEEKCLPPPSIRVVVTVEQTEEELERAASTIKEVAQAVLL
T2 sequence (Q53FV1 whole entry, one chain of several): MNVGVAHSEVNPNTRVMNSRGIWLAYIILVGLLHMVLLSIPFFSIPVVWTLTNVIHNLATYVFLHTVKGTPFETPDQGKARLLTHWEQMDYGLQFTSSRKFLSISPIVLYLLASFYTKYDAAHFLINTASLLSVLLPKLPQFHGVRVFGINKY

With `CCCCCCCCCCCCC/C=C/[C@@H](O)[C@H](CO)NC(=O)CCCCC` [C6-ceramide] the inhibition curve (SPT-ORMDL3 complex [1]) was “responses to C6-ceramide have been severely impaired for the former two variants”, the IC50 (SPT-ORMDL2 complex) was 980 nM and the inhibition curve (SPT-ORMDL3 complex [2]) was “inhibition effect of C6-ceramide on all these SPTLC1 ALS variants was attenuated”. For the same molecule, the IC50 (SPT-ORMDL3 complex [3]) was 6980 nM, the IC50 (SPT-ORMDL3 complex [4]) was 964 nM and the IC50 (SPT-ORMDL1 complex) was 4070 nM. For the same molecule, the IC50 (SPT-ORMDL3 complex [5]) was 2200 nM, the inhibition curve (SPT-ORMDL3 complex [6]) was “responses to C6-ceramide have been severely impaired for the former two variants” and the inhibition curve (SPT-ORMDL3 complex [7]) was “inhibition effect of C6-ceramide on all these SPTLC1 ALS variants was attenuated”.

For `CCCCCCCCCCCCC/C=C/[C@@H](O)[C@H](CO)NC(=O)CCCCCCCCCCCCCCCCCCCCCCC` [C24-ceramide], the “cryo-EM structure; LC-MS/MS of co-purified ceramides” value (SPT-ORMDL3 complex [8]) was “ceramide-like density in the apo SPT-ORMDL3 structure, which could be better fitted with C24-ceramide”.

B1: binds (SPTLC1); binds (SPTLC2); binds [9].

B2: SPTssa (natural protein, human, UniProt Q969W0 1-71, looked up)
chain: MAGMALARAWKQMSWFYYQYLLVTALYMLEPWERTVFNSMLVSIVGMALYTGYVFMPQHIMAILHYFEIVQ
notes: serine palmitoyltransferase small subunit A (SPTssa), human, codon-optimized full-length cDNA; also called small SPT subunit; source: HEK293F, transiently co-transfected with the other subunits, purified as a complex (anti-Flag resin, SEC, GDN)
B2: binds [10].
